The results in this text go back to paper PMC11428593 (Antibiotics, 2024).

≈ marks a conversion by molar mass, not a printed value. Where “and” joins values, the source holds several entries; their conditions need not be identical. Equal entries are not always repeated. Where two headings read alike, the source gives them in different places.

One assay has as its system MRSA USA300LAC. Description: MIC by broth microdilution (CLSI). The conditions noted are these: Staphylococcus aureus; MRSA USA300LAC; MHB, 37 °C, 16 h; read-out: MIC. In kind it is cell-based, Staphylococcus aureus. Here is the method: The MIC values of the alkyl pyridinol derivatives against the S. aureus strain ATCC 25923, MRSA strains ATCC 33591, ATCC BAA-44, and USA300LAC, as well as the P. aeruginosa strain ATCC 27853, were determined by following the CLSI guidelines for the broth microdilution antibiotic sensitivity testing protocol. In brief, the overnight cultures were diluted into Mueller Hinton Broth (MHB) to a final inoculum concentration of 5 × 10^5 CFU/mL (O.D600nm = 0.00001) and dispensed into a 96-well polystyrene plate (Alkali Scientific, Fort Lauderdale, FL, USA). Alkyl pyridine compounds were diluted into inoculated MHB to the indicated concentrations from stock solutions that would allow for DMSO concentrations below 5%, resulting in a total volume of 200 μL per well. The plates were subsequently incubated at 37 °C for 16 h at 300 rpm. The MIC values, which are defined as the lowest compound concentration that inhibited growth, were determined from three biological replicates.
Background: Broth dilution looks for growth in wells or tubes with falling amounts of substance.

Assay [1] deals with 3T3 mouse embryonic fibroblast cells. Description: MTT cytotoxicity assay. The assay is classed as cell-based. The conditions noted are these: 3T3 cells; for IC50: Mus musculus, NIH3T3, 24 h. Here is the method:
To gauge the potential for toxicity of the new alkyl pyridinol derivates, we tested their cytotoxicity by examining the metabolic activity of 3T3 mouse embryonic fibroblast cells using the tetrazolium dye 3-(4,5-dimethylthiazol-2-yl)-2,5-diphenyltetrazolium bromide (MTT), as has been done before. The dye is reduced by NAD(P)H-dependent cellular oxidoreductases, resulting in the formation of the insoluble formazan with its purple color, which can be quantified. 3T3 cells were treated with different concentrations of the alkyl pyridinol compounds for 24 h, and the absorbance of the MTT-treated cell culture supernatant was measured at 540 nm. Absorbances were plotted against concentrations of the compound added (Supplementary Figure S2), and IC50, the concentration of a drug required for 50% metabolic inhibition, was calculated for each compound. […] However, the concentrations at which these compounds compromise 3T3 mouse embryonic fibroblast cells are well above their reported MICs (Table 2).
3T3 cells (male mouse embryonic fibroblast Flp-In cells, Thermo Fisher, Waltham, MA, USA) were cultured in D-MEM (Corning, Corning, NY, USA) supplemented with 10% Fetal Clone III (Cytiva Hyclone, Bengaluru, India) and L-Glutamine (Alfa Aesar, Haverhill, MA, USA) at 37 °C and 5% CO2. To determine the compound’s toxicity, 3T3 cells were seeded at a density of 10,000 cells/well into 96-well plates (Fisherbrand, Waltham, MA, USA) and cultured as described above. After 16 h, the culture medium was extracted and replaced by supplemented D-MEM without phenol red (Corning, Glendale, AZ, USA) containing individual compounds in the indicated concentrations. Furthermore, 1% sodium dodecyl sulfate (SDS) and 2% dimethyl sulfoxide (DMSO), equivalent to the volume of the DMSO in the highest compound concentration, were used as the cell death and vehicle control, respectively. Moreover, 16 h after compound treatment, the culture medium was extracted again and replaced by fresh supplemented D-MEM without phenol red. Subsequently, 10 µL of 5 mg/mL MTT reagent (Alfa Aesar, Haverhill, MA, USA), dissolved in DMSO, was added to each well, and the cells were incubated for 2 h at 37 °C and 5% CO2. Next, 85 µL of the culture supernatant was removed from each well, mixed with 50 µL of DMSO, and incubated in an optical grade 96-well plate (Fisherbrand, Waltham, MA, USA) in a shaking incubator at 37 °C and 250 rpm. The absorbance of the MTT-treated cell culture supernatant was measured at 540 nm in an ELx808 plate reader (Biotek, Winooski, VT, USA).
On the technique in general: Formazan colour is commonly taken as a measure of viable cells.

Assay [2] concerns S. aureus strain USA300LAC. The assay is described as follows: Fluorescence microscopy (DAPI/Nile Red) of membrane deformation. The assay is classed as cell-based, Staphylococcus aureus. The source says: Given the high lipophilic nature and membrane-compromising effects of JC-01-074, we wondered about the possibility that the alkyl chain of JC-01-074 could be incorporated into the phospholipid bilayer, thereby destabilizing the uniform packing of the membrane phospholipids and potentially resulting in “bleb formation”, as this had been reported before. To test this idea, we cultivated the S. aureus strain USA300LAC to the mid-log phase and treated the cells with the indicated concentrations of JC-01-074 and daptomycin (as a positive control), respectively. Samples were collected at 15 and 60 mins of treatment, washed twice, and resuspended in fresh PBS. Cells were then stained with 4′,6-diamidino-2-phenylindole (DAPI) and Nile Red for 10 min, respectively. DAPI is a nucleic acid stain that binds to DNA, while Nile Red is commonly used as an inner membrane stain to quantify lipids. The cells were then mounted onto a glass slide with 1% agarose and imaged at 63× magnification via inverted confocal laser scanning microscopy. […] To rule out the possibility that these blebs were transiently formed, we further imaged the cells exposed to JC-01-074 for 60 min. […] The smaller blebs formed may have extended over the incubation time, resulting in their fusion into large blebs.
Figure 5 JC-01-074 treatment rapidly induces deformations in the S. aureus plasma membrane as indicated by the white arrows. […] Cells were collected at the indicated time points and stained with DAPI (5 µg/mL) and Nile Red (5 µg/mL) for 10 min, following which cells were imaged on 1% agarose pads. Images are representatives of three biological replicates. Scale bar = 1.25 µm.
The overnight USA300LAC cultures were diluted into the TSB media to an O.D.600nm = 0.01 and incubated under shaking conditions at 37 °C until the mid-log phase (O.D.600nm = 0.3) was reached. […] The cells were then imaged on 1% agarose gel pads and via fluorescence microscopy using a Leica SP8 confocal microscope. […] Fluorescence was detected between the wavelengths of 500–560 nm, with an 8×- line averaging.

[3] abbreviates: 24 hours, one value per biological replicate, read-out: IC50 of single biological replicates (Figure S2).
[4] abbreviates: 24 h treatment, mean ± S.D., read-out: IC50.

As for `CCCCCCCCCC#Cc1cncc(O)c1` [JC-01-072], in the assay with MRSA USA300LAC, the minimum inhibitory concentration (MIC) (as a rule, the lowest concentration that inhibits growth of the organism) came out at 8 µg/mL (≈ 32.6 µM). Moreover, in assay [1] (24 hours, one value per biological replicate, listed as JC-01-72), the “IC50 of single biological replicates (Figure S2)” value is 41.1 µg/ml and 27.6 µg/ml and 35 µg/ml. Moreover, the results for the concentration for half-maximal inhibition (IC50) in assay [1] (setting [3]) and in assay [1] (setting [4]) were 47.1 µg/mL and 153 ± 33.8 µM, respectively.

As for `CCCCCCCCCC#Cc1cccc(O)n1` [JC-01-074], the minimum inhibitory concentration (MIC) in the assay on MRSA USA300LAC stood at 16 µg/mL (≈ 65.2 µM). In assay [1] (24 hours, one value per biological replicate, listed as JC-01-74), the “IC50 of single biological replicates (Figure S2)” value is 27.1 µg/ml and 26.7 µg/ml. The IC50 (as a rule, the concentration needed to halve the response being measured) in assay [1] (setting [3]) came out at 22.9 µg/mL; in assay [1] (setting [4]), 104 ± 9.4 µM. Besides, in assay [2] (0.5× and 1× MIC, 60 min, USA300LAC), the “membrane morphology after 60 min” value is “formation of aberrant membrane blebs”. The “lowest concentration at which bleb formation was observed” value in assay [2] (USA300LAC plasma membrane, 0.5× MIC) is on record as 8 µg/mL. For the same molecule, the “earliest time at which bleb formation was observed” value in assay [2] (USA300LAC, after addition of compound) is on record as 15 min.
